# From PubChem BioAssay (NCI)
#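 Protocol summary: plate cells (96-well), add compound at 5 concentrations, incubate 48 h, interpolate endpoints linearly. At the GI50, growth is halved. TGI: concentration producing complete growth inhibition.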
# Columns and labels:
# Test in all cases: NCI-60 cell line screen, 48 h
# SF-295 CNS = tested on: SF-295 CNS
# CCRF-CEM leukemia = tested on: CCRF-CEM leukemia
# MDA-MB-231 breast = tested on: MDA-MB-231 breast
# SK-MEL-28 melanoma = tested on: SK-MEL-28 melanoma
# RXF 393 renal = tested on: RXF 393 renal
# TK-10 renal = tested on: TK-10 renal
# UACC-62 melanoma = tested on: UACC-62 melanoma
# A498 renal = tested on: A498 renal
# SN12C renal = tested on: SN12C renal
# HCT-116 colon = tested on: HCT-116 colon
# HT29 colon = tested on: HT29 colon
# SF-268 CNS = tested on: SF-268 CNS
# MDA-MB-435 = tested on: MDA-MB-435
# OVCAR-4 ovarian = tested on: OVCAR-4 ovarian
# LOX IMVI melanoma = tested on: LOX IMVI melanoma
# OVCAR-5 ovarian = tested on: OVCAR-5 ovarian
# SK-MEL-5 melanoma = tested on: SK-MEL-5 melanoma
# NCI-H23 lung = tested on: NCI-H23 lung
# NCI-H522 lung = tested on: NCI-H522 lung
# ACHN renal = tested on: ACHN renal
# M14 melanoma = tested on: M14 melanoma
# OVCAR-8 ovarian = tested on: OVCAR-8 ovarian
# SW-620 colon = tested on: SW-620 colon
# HS 578T breast = tested on: HS 578T breast
# OVCAR-3 ovarian = tested on: OVCAR-3 ovarian
# RPMI-8226 leukemia = tested on: RPMI-8226 leukemia
# HOP-62 NSCLC = tested on: HOP-62 NSCLC
# HCT-15 colon = tested on: HCT-15 colon
# U251 CNS = tested on: U251 CNS
# CAKI-1 renal = tested on: CAKI-1 renal
# NCI-H460 lung = tested on: NCI-H460 lung
# 786-0 renal = tested on: 786-0 renal
# SK-OV-3 ovarian = tested on: SK-OV-3 ovarian
# PC-3 prostate = tested on: PC-3 prostate
# BT-549 breast = tested on: BT-549 breast
# A549 NSCLC = tested on: A549 NSCLC
# NCI-H226 lung = tested on: NCI-H226 lung
# UACC-257 melanoma = tested on: UACC-257 melanoma
# SK-MEL-2 melanoma = tested on: SK-MEL-2 melanoma
# HCC-2998 colon = tested on: HCC-2998 colon
# MOLT-4 leukemia = tested on: MOLT-4 leukemia
# SR leukemia = tested on: SR leukemia
# SNB-75 CNS = tested on: SNB-75 CNS
# DU-145 prostate = tested on: DU-145 prostate
# UO-31 renal = tested on: UO-31 renal
# SNB-19 CNS = tested on: SNB-19 CNS
# KM12 colon = tested on: KM12 colon
# MALME-3M melanoma = tested on: MALME-3M melanoma
# COLO 205 colon = tested on: COLO 205 colon
# IGROV1 ovarian = tested on: IGROV1 ovarian
# K-562 leukemia = tested on: K-562 leukemia
# NCI/ADR-RES ovarian = tested on: NCI/ADR-RES ovarian
# T-47D breast = tested on: T-47D breast
# HOP-92 NSCLC = tested on: HOP-92 NSCLC
# HL-60(TB) leukemia = tested on: HL-60(TB) leukemia
# MCF7 breast = tested on: MCF7 breast
# SF-539 CNS = tested on: SF-539 CNS
structure (smiles),measurement,setting,value
COC(=O)Nc1nc2cc3c(cc2s1)OCCO3,GI50,SF-295 CNS,> 50 µM
same,TGI,SF-295 CNS,> 50 µM
same,GI50,CCRF-CEM leukemia,> 50 µM
same,TGI,CCRF-CEM leukemia,> 50 µM
same,GI50,MDA-MB-231 breast,> 50 µM
same,TGI,MDA-MB-231 breast,> 50 µM
same,GI50,SK-MEL-28 melanoma,> 50 µM
same,TGI,SK-MEL-28 melanoma,> 50 µM
same,GI50,RXF 393 renal,> 50 µM
same,TGI,RXF 393 renal,> 50 µM
same,GI50,TK-10 renal,> 50 µM
same,TGI,TK-10 renal,> 50 µM
same,GI50,UACC-62 melanoma,> 50 µM
same,TGI,UACC-62 melanoma,> 50 µM
same,GI50,A498 renal,> 50 µM
same,TGI,A498 renal,> 50 µM
same,GI50,SN12C renal,> 50 µM
same,TGI,SN12C renal,> 50 µM
same,GI50,HCT-116 colon,> 50 µM
same,TGI,HCT-116 colon,> 50 µM
same,GI50,HT29 colon,> 50 µM
same,TGI,HT29 colon,> 50 µM
same,GI50,SF-268 CNS,> 50 µM
same,TGI,SF-268 CNS,> 50 µM
same,GI50,MDA-MB-435,> 50 µM
same,TGI,MDA-MB-435,> 50 µM
same,GI50,OVCAR-4 ovarian,> 50 µM
same,TGI,OVCAR-4 ovarian,> 50 µM
same,GI50,LOX IMVI melanoma,> 50 µM
same,TGI,LOX IMVI melanoma,> 50 µM
same,GI50,OVCAR-5 ovarian,> 50 µM
same,TGI,OVCAR-5 ovarian,> 50 µM
same,GI50,SK-MEL-5 melanoma,> 50 µM
same,TGI,SK-MEL-5 melanoma,> 50 µM
same,GI50,NCI-H23 lung,> 50 µM
same,TGI,NCI-H23 lung,> 50 µM
same,GI50,NCI-H522 lung,> 50 µM
same,TGI,NCI-H522 lung,> 50 µM
same,GI50,ACHN renal,> 50 µM
same,TGI,ACHN renal,> 50 µM
same,GI50,M14 melanoma,> 50 µM
same,TGI,M14 melanoma,> 50 µM
same,GI50,OVCAR-8 ovarian,> 50 µM
same,TGI,OVCAR-8 ovarian,> 50 µM
same,GI50,SW-620 colon,> 50 µM
same,TGI,SW-620 colon,> 50 µM
same,GI50,HS 578T breast,> 50 µM
same,TGI,HS 578T breast,> 50 µM
same,GI50,OVCAR-3 ovarian,> 50 µM
same,TGI,OVCAR-3 ovarian,> 50 µM
same,GI50,RPMI-8226 leukemia,> 50 µM
same,TGI,RPMI-8226 leukemia,> 50 µM
same,GI50,HOP-62 NSCLC,> 50 µM
same,TGI,HOP-62 NSCLC,> 50 µM
same,GI50,HCT-15 colon,> 50 µM
same,TGI,HCT-15 colon,> 50 µM
same,GI50,U251 CNS,> 50 µM
same,TGI,U251 CNS,> 50 µM
same,GI50,CAKI-1 renal,> 50 µM
same,TGI,CAKI-1 renal,> 50 µM
same,GI50,NCI-H460 lung,> 50 µM
same,TGI,NCI-H460 lung,> 50 µM
same,GI50,786-0 renal,> 50 µM
same,TGI,786-0 renal,> 50 µM
same,GI50,SK-OV-3 ovarian,> 50 µM
same,TGI,SK-OV-3 ovarian,> 50 µM
same,GI50,PC-3 prostate,> 50 µM
same,TGI,PC-3 prostate,> 50 µM
same,GI50,BT-549 breast,> 50 µM
same,TGI,BT-549 breast,> 50 µM
same,GI50,A549 NSCLC,> 50 µM
same,TGI,A549 NSCLC,> 50 µM
same,GI50,NCI-H226 lung,> 50 µM
same,TGI,NCI-H226 lung,> 50 µM
same,GI50,UACC-257 melanoma,> 50 µM
same,TGI,UACC-257 melanoma,> 50 µM
same,GI50,SK-MEL-2 melanoma,> 50 µM
same,TGI,SK-MEL-2 melanoma,> 50 µM
same,GI50,HCC-2998 colon,> 50 µM
same,TGI,HCC-2998 colon,> 50 µM
same,GI50,MOLT-4 leukemia,> 50 µM
same,TGI,MOLT-4 leukemia,> 50 µM
same,GI50,SR leukemia,> 50 µM
same,TGI,SR leukemia,> 50 µM
same,GI50,SNB-75 CNS,> 50 µM
same,TGI,SNB-75 CNS,> 50 µM
same,GI50,DU-145 prostate,> 50 µM
same,TGI,DU-145 prostate,> 50 µM
same,GI50,UO-31 renal,> 50 µM
same,TGI,UO-31 renal,> 50 µM
same,GI50,SNB-19 CNS,> 50 µM
same,TGI,SNB-19 CNS,> 50 µM
same,GI50,KM12 colon,> 50 µM
same,TGI,KM12 colon,> 50 µM
same,GI50,MALME-3M melanoma,> 50 µM
same,TGI,MALME-3M melanoma,> 50 µM
same,GI50,COLO 205 colon,> 50 µM
same,TGI,COLO 205 colon,> 50 µM
same,GI50,IGROV1 ovarian,> 50 µM
same,TGI,IGROV1 ovarian,> 50 µM
same,GI50,K-562 leukemia,> 50 µM
same,TGI,K-562 leukemia,> 50 µM
same,GI50,NCI/ADR-RES ovarian,> 50 µM
same,TGI,NCI/ADR-RES ovarian,> 50 µM
same,GI50,T-47D breast,> 50 µM
same,TGI,T-47D breast,> 50 µM
same,GI50,HOP-92 NSCLC,> 50 µM
same,TGI,HOP-92 NSCLC,> 50 µM
same,GI50,HL-60(TB) leukemia,> 50 µM
same,TGI,HL-60(TB) leukemia,> 50 µM
same,GI50,MCF7 breast,> 50 µM
same,TGI,MCF7 breast,> 50 µM
same,GI50,SF-539 CNS,> 50 µM
same,TGI,SF-539 CNS,> 50 µM
